Measured values: patent publication US7700277B2, “Use of polymorphisms in human OATP-C associated with an effect on statin pharmacokinetics in humans in statin therapy” (AstraZeneca AB, priority 2003, dated 2010)
Residue numbers refer to the chain shown, from its start.

How the values were obtained:
[1] = system: OATP-C; assay: Dose-normalised plasma rosuvastatin concentrations by OATP-C genotype/haplotype in patients treated for 6 weeks; assay type: in vivo, human
Source text: In brief, the OATP-C gene was sequenced in 79 human clinical trial subjects. 52 of these patients had received rosuvastatin for at least 6 weeks for dislipidaemic disease and had plasma PK measurements taken after 6 weeks of treatment.
The promoter, exons and 3′ untranslated regions of OATP-C were fully sequenced by DNA terminator sequencing in DNA collected from 79 subjects in clinical trials. Sequencing traces were used to record the genotypes for known (i.e. available in the literature or SNP databases) SNPs in OATP-C. Some novel SNPs were found in the promoter and 3′UTR region of OATP-C.
Mean dose-normalised plasma rosuvastatin concentrations were determined for the genotypes for each polymorphic variant in the OATP-C gene. OATP-C genotype data for 3 SNPs, namely amino acid position 130 Asparagine→Aspartic acid (Asn130Asp), 155 Proline→Threonine (Pro 155Thr) and 174 Valine→Alanine (Val174Ala), was utilised to determine the haplotype pair for each subject. Mean dose-normalised plasma rosuvastatin concentrations were determined for the subjects grouped by haplotype pair.
All consenting subjects treated with rosuvastatin (n=271), from the 2 clinical trials including the original 52 patients, were subsequently genotyped, using TaqMan™, for OATP-C variants. Data for SNPs causing the N130D, P155T and V174A variants were utilised to assign OATPC haplotype pairs to each subject, as previously described.

[2] = target: T1, OATP-C (Homo sapiens, UniProt Q9Y6L6); conditions: literature reports (Brown 2001, in vitro; Hsiang 1999); cited from earlier work
T1 sequence (Q9Y6L6 1-691): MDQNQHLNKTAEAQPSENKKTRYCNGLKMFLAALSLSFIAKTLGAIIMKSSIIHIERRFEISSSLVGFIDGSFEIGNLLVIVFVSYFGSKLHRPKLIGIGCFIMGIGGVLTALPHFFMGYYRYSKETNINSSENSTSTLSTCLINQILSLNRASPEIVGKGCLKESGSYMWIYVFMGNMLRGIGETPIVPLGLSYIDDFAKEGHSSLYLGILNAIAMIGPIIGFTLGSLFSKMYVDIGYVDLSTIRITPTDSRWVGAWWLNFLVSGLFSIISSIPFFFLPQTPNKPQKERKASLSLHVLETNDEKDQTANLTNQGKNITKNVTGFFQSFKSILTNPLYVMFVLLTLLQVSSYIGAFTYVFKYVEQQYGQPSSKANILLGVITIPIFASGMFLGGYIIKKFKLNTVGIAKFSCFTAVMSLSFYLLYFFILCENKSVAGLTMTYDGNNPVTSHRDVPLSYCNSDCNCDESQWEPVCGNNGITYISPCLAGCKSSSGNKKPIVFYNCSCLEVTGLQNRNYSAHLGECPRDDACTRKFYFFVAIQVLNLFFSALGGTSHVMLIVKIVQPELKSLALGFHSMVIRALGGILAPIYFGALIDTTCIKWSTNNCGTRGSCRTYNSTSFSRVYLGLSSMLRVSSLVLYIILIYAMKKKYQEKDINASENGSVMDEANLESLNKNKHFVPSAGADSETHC

[3] = target: T2, OATP-C (Homo sapiens, UniProt Q9Y6L6, N130D/V174A); conditions: Japanese healthy volunteers; Nishizato 2003; cited from earlier work
T2 construct: host or cells: human volunteers (in vivo)
T2 sequence (Q9Y6L6 1-691 N130D/V174A): T1 sequence (Q9Y6L6 1-691) with N130D, V174A

[4] = system: OATP-C; conditions: cohort of healthy volunteers; Niemi 2004; cited from earlier work

## CC(C)c1nc(N(C)S(C)(=O)=O)nc(-c2ccc(F)cc2)c1/C=C/[C@@H](O)C[C@@H](O)CC(=O)O [rosuvastatin]
[1]; FIG. 1, 52 subjects, Val174Ala heterozygote vs wild-type homozygote, after 6 weeks of treatment
  dose-normalised plasma rosuvastatin values, 174Ala variant vs wild type: higher plasma concentrations
[1]; FIG. 2, haplotype pairs, after 6 weeks of treatment
  dose-normalised plasma rosuvastatin values, OATP-C*15 haplotype vs other haplotypes: higher plasma concentrations
[1]; FIG. 3, patients treated 6 weeks with different doses, most evident at higher doses
  mean plasma rosuvastatin levels (dose normalised), Val174Ala heterozygous vs Val/Val: higher
[1]; FIG. 4, two independent phase III studies
  mean plasma rosuvastatin concentrations, az0005537 (-118A>C) A/C heterozygous vs A/A: trend for an increase
[1]; FIG. 5, combined 2 phase III studies, V174A heterozygotes stratified by promoter genotype
  mean plasma rosuvastatin concentrations, 174A variant with az0005537 C allele vs az0005537 A allele: tendency for higher mean plasma rosuvastatin concentrations
[1]; patients, dose-normalised plasma levels
  effect of OATP-C variants N130D and P155T on pharmacokinetic disposition: do not appear to affect
[2]
  substrate / transport by OATP-C: substrate for OATP-C

## CC[C@H](C)C(=O)O[C@H]1C[C@H](O)C=C2C=C[C@H](C)[C@H](CC[C@@H](O)C[C@@H](O)CC(=O)O)[C@H]21 [pravastatin]
[2]
  substrate / transport by OATP-C: actively transported
[3]
  effect of OATPC*15 allele (N130D and V174A) on pharmacokinetics: had an effect
[4]
  correlation between PK and a haplotype containing a promoter SNP: significant correlation
